Measured values reported in ChEMBL document CHEMBL1124311, “Synthesis and antiallergy activity of 4-(diarylhydroxymethyl)-1-[3-(aryloxy)propyl]piperidines and structurally related compounds” (J Med Chem, 1989).

Columns and labels:
Type in all cases: functional, organism-based
Rattus norvegicus [1] = assay: Oral antiallergy activity in the passive foot anaphylaxis (PFA) model of rat, at a dose of 3.16 (mg/kg); not significantly different from negative control group
Rattus norvegicus [2] = assay: Oral antiallergy activity in the passive foot anaphylaxis (PFA) model of rat, at a dose of 10 (mg/kg); Activity equal to positive control group
Rattus norvegicus [3] = assay: Oral antiallergy activity in the passive foot anaphylaxis (PFA) model of rat, at a dose of 1.0 (mg/kg); not significantly different from negative control group
Rattus norvegicus [4] = assay: Oral antiallergy activity in the passive foot anaphylaxis (PFA) model of rat, at a dose of 3.16 (mg/kg); Activity between positive and negative control groups
Rattus norvegicus [5] = assay: Oral antiallergy activity in the passive foot anaphylaxis (PFA) model of rat, at a dose of 3.16 (mg/kg); Activity equal to positive control group
Rattus norvegicus [6] = assay: Oral antiallergy activity in the passive foot anaphylaxis (PFA) model of rat, at a dose of 10 (mg/kg); Activity greater than positive control group
Rattus norvegicus [7] = assay: Oral antiallergy activity in the passive foot anaphylaxis (PFA) model of rat, at a dose of 10 (mg/kg); Activity between positive and negative control groups

Row | Compound | PFA (Rattus norvegicus [1]) | PFA (Rattus norvegicus [2]) | PFA (Rattus norvegicus [3]) | PFA (Rattus norvegicus [4]) | further results
1 | Oc1ccccc1OCCCN1CCC(C(O)(c2ccc(F)cc2)c2ccc(F)cc2)CC1 | Activity equal to positive control group | Activity equal to positive control group |  |  | 
2 | CNC(=O)Nc1ccc(OCCCN2CCC(C(O)(c3ccc(F)cc3)c3ccc(F)cc3)CC2)cc1 | Activity equal to positive control group | Activity equal to positive control group |  |  | 
3 | O=C(O)Cc1ccc(OCCCN2CCC(C(O)(c3ccc(F)cc3)c3ccc(F)cc3)CC2)cc1 |  | Activity between positive and negative control groups | Activity between positive and negative control groups | Activity between positive and negative control groups | 
4 | CS(=O)(=O)c1ccc(OCCCN2CCC(C(O)(c3ccc(F)cc3)c3ccc(F)cc3)CC2)cc1 | Activity equal to positive control group | Activity equal to positive control group |  |  | 
5 | CC(C)(C)C(=O)c1ccc(OCCCN2CCC(C(O)(c3ccc(F)cc3)c3ccc(F)cc3)CC2)cc1 | Activity equal to positive control group | Activity equal to positive control group |  |  | 
6 | COc1cc(C(C)=O)ccc1OCCCCN1CCC(C(O)(c2ccc(F)cc2)c2ccc(F)cc2)CC1 |  |  |  |  | PFA (Rattus norvegicus [5]): Activity equal to positive control group
7 | COc1cc(C(C)=O)ccc1OCCCN1CCC(C(O)(c2ccccc2)c2ccc(F)cc2)CC1 (centres undefined) |  |  |  |  | PFA (Rattus norvegicus [5]): Activity equal to positive control group
8 | OC(c1ccc(F)cc1)(c1ccc(F)cc1)C1CCN(CCCOc2ccccc2)CC1 |  |  |  |  | PFA (Rattus norvegicus [5]): Activity equal to positive control group
9 | CSc1ccc(OCCCN2CCC(C(O)(c3ccc(F)cc3)c3ccc(F)cc3)CC2)cc1 | Activity equal to positive control group | Activity equal to positive control group |  |  | 
10 | CC(=O)Cc1ccc(OCCCN2CCC(C(O)(c3ccc(F)cc3)c3ccc(F)cc3)CC2)cc1 | Activity greater than positive control group |  |  |  | PFA (Rattus norvegicus [6]): Activity greater than positive control group
11 | Cc1cccc(OCCCN2CCC(C(O)(c3ccc(F)cc3)c3ccc(F)cc3)CC2)c1 |  |  | Activity between positive and negative control groups | Activity between positive and negative control groups | PFA (Rattus norvegicus [7]): Activity between positive and negative control groups
12 | CCNCCc1ccc(CN(CC)c2cc(OC)ccc2[C@@H]2CCc3cc(O)ccc3C2)cc1 |  |  | Activity between positive and negative control groups | Activity between positive and negative control groups | 
13 | CC(C)C(=O)c1ccc(OCCCN2CCC(C(O)(c3ccc(F)cc3)c3ccc(F)cc3)CC2)cc1 | Activity greater than positive control group |  |  |  | PFA (Rattus norvegicus [6]): Activity greater than positive control group
14 | CCc1ccc(OCCCN2CCC(C(O)(c3ccc(F)cc3)c3ccc(F)cc3)CC2)cc1 |  | Activity between positive and negative control groups | Activity between positive and negative control groups | Activity between positive and negative control groups | 
15 | COc1ccc(OCCCN2CCC(C(O)(c3ccc(F)cc3)c3ccc(F)cc3)CC2)cc1 | Activity equal to positive control group | Activity equal to positive control group |  |  | 
16 | CN(C)C(=O)c1ccc(OCCCN2CCC(C(O)(c3ccc(F)cc3)c3ccc(F)cc3)CC2)cc1 |  |  | Activity between positive and negative control groups | Activity between positive and negative control groups | PFA (Rattus norvegicus [6]): Activity between positive and negative control groups
17 | Nc1ccc(OCCCN2CCC(C(O)(c3ccc(F)cc3)c3ccc(F)cc3)CC2)cc1 |  |  | Activity between positive and negative control groups | Activity between positive and negative control groups | PFA (Rattus norvegicus [6]): Activity between positive and negative control groups
18 | CCOC(=O)c1ccccc1OCCCN1CCC(C(O)(c2ccc(F)cc2)c2ccc(F)cc2)CC1 |  |  | Activity between positive and negative control groups | Activity between positive and negative control groups | PFA (Rattus norvegicus [7]): Activity between positive and negative control groups
